Source: patent US20110112195A1 (priority 2004, published 2011)
Converted amounts (≈) assume the structure as drawn. Where two headings read alike, the source gives them in different places.

Columns and labels:
West Nile Virus = format: cell-based
[1] = molecular target: H1L phosphatase (GST-H1L fusion protein) (Vaccinia virus, UniProt P07239); experiment: biochemical
SARS-CoV [2] = format: cell-based
Adenovirus = format: cell-based
vaccinia virus (WR) [3] = format: cell-based
SARS-CoV [4] = experiment: microbe, parasite or virus in culture; format: cell-based
in vitro = conditions: African green monkey
Ebola = format: cell-based
vaccinia virus (WR) [5] = format: cell-based; remark: listed apart in the source
[6] = system: adenovirus type 5 expressing EGFP; format: cell-based
SARS-CoV [7] = conditions: cited from earlier work

Compound: O=C(O)C1=CC(=C(c2ccc(O)c(C(=O)O)c2)c2ccc(O)c(C(=O)O)c2)C=CC1=O [ATA, aurintricarboxylic acid]
- toxicity associated with treatment (Vero cells): little toxicity
- inhibition of West Nile Virus (West Nile Virus): 10000 fold
- IC50 [1]: 16 µM
- inhibition of virus RNA replication (SARS-CoV [2]): more than 1,000 fold
- potency of ATA relative to interferon α as anti-SARS-CoV agent (SARS-CoV [2]): about 10 times
- potency of ATA relative to interferon β as anti-SARS-CoV agent (SARS-CoV [2]): ~100 times
- effect on Adenovirus (Adenovirus): no effect
- plaque count (peak viral load) (vaccinia virus (WR) [3]): 616 pfu/mL
- viral count in treated sample as share of untreated control (vaccinia virus (WR) [3]): 0.00026%
- inhibition of virus replication compared to untreated controls (SARS-CoV [4]): ≤ 1000 fold
- viral replication level lower than control (SARS-CoV [4]): 10 times
- EC50 (SARS-CoV [4]; Severe acute respiratory syndrome coronavirus, Vero): 0.2 mg/mL (≈ 0.474 mM)
- CC50 (in vitro): 37.5 mg/mL (≈ 88.8 mM)
- effect on Ebola (Ebola): no effect
- lowest drug concentration at which block in vaccinia replication was evident (vaccinia virus (WR) [5]): 25 µg/mL
- inhibition of EGFP expression by adenovirus [6]: No significant inhibition

Compound: CC1(C)[C@@H](O[C@H]2O[C@H](C(=O)O)[C@@H](O)[C@H](O)[C@H]2O[C@@H]2O[C@H](C(=O)O)[C@@H](O)[C@H](O)[C@H]2O)CC[C@]2(C)[C@H]3C(=O)C=C4[C@@H]5C[C@@](C)(C(=O)O)CC[C@]5(C)CC[C@@]4(C)[C@]3(C)CC[C@@H]12 [glycyrrhizin]
- inhibition effect on SARS-CoV replication (logs) (SARS-CoV [7]): two logs or less

Compound: Cc1c(O)cccc1C(=O)N[C@@H](CSc1ccccc1)[C@H](O)CN1C[C@H]2CCCC[C@H]2C[C@H]1C(=O)NC(C)(C)C [nelfinavir]
- inhibition effect on SARS-CoV replication (logs) (SARS-CoV [7]): two logs or less

Compound: NC(=O)c1ncn([C@@H]2O[C@H](CO)[C@@H](O)[C@H]2O)n1 [ribavarin]
- effect against SARS-CoV replication (SARS-CoV [7]): little effect

Compound: IFNα
- CC50 (Vero cells): 15000 IU/ml
- inhibition effect with pre-treatment compared with samples without pre-treatment (SARS-CoV [2]): about the same
- inhibition of virus RNA replication (SARS-CoV [2]): 100 fold
- EC50 (SARS-CoV [4]): 500 IU/ml
